According to ChEMBL document CHEMBL6127082, “Genome-Led Discovery of the Antibacterial Cyclic Lipopeptide Kutzneridine A and Its Silent Biosynthetic Gene Cluster from Kutzneria Species” (2024):
≈ marks a conversion by molar mass, not a printed value. Calls of active or inactive are those of the source. The rule behind the calls is not given here.

What was measured:
Staphylococcus aureus [1] = experiment: Antibacterial activity against methicillin-resistant Staphylococcus aureus assessed as inhibition of bacterial growth; format: functional
Enterococcus faecium [2] = experiment: Antibacterial activity against vancomycin A-resistant Enterococcus faecium assessed as inhibition of bacterial growth; format: functional
Enterococcus faecium [3] = experiment: Antibacterial activity against vancomycin B-resistant Enterococcus faecium assessed as inhibition of bacterial growth; format: functional
Acinetobacter baumannii = experiment: Antibacterial activity against Acinetobacter baumannii ATCC19606 assessed as inhibition of bacterial growth; format: functional, organism-based
Aspergillus fumigatus = experiment: Antifungal activity against Aspergillus fumigatus ATCC46645 assessed as inhibition of […] growth; format: functional, organism-based
Staphylococcus aureus [4] = experiment: Antibacterial activity against methicillin-resistant Staphylococcus aureus MB5395 assessed as inhibition of bacterial growth; format: functional

| Structure (SMILES) | MIC95 (Staphylococcus aureus [1]) [mg/L] | MIC95 (Enterococcus faecium [2]) [mg/L] | MIC95 (Enterococcus faecium [3]) [mg/L] | Activity (Acinetobacter baumannii) | Activity (Aspergillus fumigatus) | MIC95 (Staphylococcus aureus [4]) [mg/L] |
| --- | --- | --- | --- | --- | --- | --- |
| CCCCC/C=C/C=C/C(=O)NC[C@@H]1NC(=O)CNC(=O)[C@@H](N)CNC(=O)[C@@H](Cc2ccc(OC)cc2)NC1=O | 16 (≈ 28.7 µM) |  |  |  |  |  |
| CCCCC/C=C/C=C/C(=O)NC[C@@H]1NC(=O)CN2C(=O)[C@H](CNC(=O)[C@@H](Cc3ccc(OC)cc3)NC1=O)NC2(C)C | 16 (≈ 26.8 µM) | 16 (≈ 26.8 µM) | 8 (≈ 13.4 µM) | inactive | inactive | 4 (≈ 6.7 µM) |
